# According to patent US6555650B1, “Cyclic analogs of histatins” (priority 1999, dated 2003):
# Positions of bridges follow the written chain, without caps; N, C: chain ends. Residues, ends and D or L forms follow the SMILES beside them. No end group written: not given here.
# Experiments:
# S. cerevisiae = experiment: fungistatic MIC assay in antifungal agar; format: cell-based; conditions: for activity after additional deletions at the C-terminal: relative to Db2-121
# Protocol: The compounds of Table 1 were tested for fungistatic activity with an assay based on the work of Gordon, Lapa et.al. (18) with the nonpathogenic yeast S. cerevisiae in which ketoconazole is used as control. A semisolid is prepared to which is added serial dilutions of peptide. This antifungal agar is distributed in a well plate, and the S. Cerevisiae inoculum is then added to each well. Both ketokonoazole and H-5 are used as positive controls and buffer is used as a control blank. Minimum inhibitory concentration MIC, i.e. the concentration of the peptide under test which prevents growth, as observed visually, is recorded for each sample so that low values of MIC indicate potent antifungal compounds.
# More specifically, stock peptide solutions (600 microliters or 1 ml) were prepared to 10 times the final concentration of the most concentrated test sample in a sodium phosphate buffer (0.01 M0, pH 7.4). Peptide concentrations were determined by UV absorbance at λ=275. Control blanks were also prepared using 1 ml buffer Five serial dilutions were made in sterile culture tubes with buffer to create a range of peptide concentrations. The final volume in each tube was either 300 microliter or 1 ml. Agar medium (2.7 or 4.5 ml) was added to each tube and mixed. Aliquots (1 ml) of each were added to a 24 well plate to give 6 different concentrations of each peptide per plate. […] A stock solution (10 mg/mL DMSO) was diluted 1:49 with buffer. A range of final concentrations of 20 to 0.16 micrograms/ml was tested. In addition, in later analog assays, H-5 was included as a positive peptide control. Histatin 5 was tested in a range from 200 micromolar to 6.3 micromolar. Other analogs were tested at concentrations anywhere from 200 μM down to 0.14 μM ubtil the analog with lowest MIC concentration was identified.
# S. cerevisiae cells grown overnight were centrifuged and washed with a 0.85% saline solution, three times. Cell concentration was adjusted to 85% transmission at λ=530 with saline solution. Cells were further diluted 1:19. Inoculant (10 microL) was added to the peptide-containing medium. The cells were incubated on this medium for 24 hours at 37° C. The fungistatic MIC for these compounds was defined as the minimum concentration required to achieve 100% inhibition after 24 hours.
# C. albicans = conditions: against C. albicans; cited from earlier work
# [1] = S. cerevisiae, minimum concentration for 100% inhibition after 24 hours at 37° C.
Compound,MIC range (S. cerevisiae; [1]),other results
N=C(N)NCCC[C@H](NC(=O)[C@H](Cc1c[nH]cn1)NC(=O)[C@@H]1CSSC[C@H](NC(=O)[C@H](Cc2c[nH]cn2)NC(=O)[C@H](Cc2c[nH]cn2)NC(=O)[C@@H](N)CCCNC(=N)N)C(=O)N[C@@H](Cc2ccc(O)cc2)C(=O)N[C@@H](CCCCN)C(=O)N[C@@H](CCCNC(=N)N)C(=O)N[C@@H](CCCCN)C(=O)N[C@@H](Cc2ccccc2)C(=O)N[C@@H](Cc2c[nH]cn2)C(=O)N[C@@H](CCC(=O)O)C(=O)N[C@@H](CCCCN)C(=O)N[C@@H](Cc2c[nH]cn2)C(=O)N[C@@H](Cc2c[nH]cn2)C(=O)N1)C(=O)NCC(=O)N[C@@H](Cc1ccc(O)cc1)C(=O)O [Db2-121] (H-RHHCYKRKFHEKHHCHRGY-OH; disulfide 4-15; N-terminus assumed),,times more potent than H-5 (S. cerevisiae; against S. cerevisiae): approximately 100 times; times more potent than ketoconazole (S. cerevisiae; against S. cerevisiae): ~10 times
"CC(=O)N1CCN(c2ccc(OCC3COC(Cn4ccnc4)(c4ccc(Cl)cc4Cl)O3)cc2)CC1 (centres unmarked) [Ketoconazole, reference compound]",4.7,
Arg His His Cys Trp Lys Arg Lys Phe His Glu Lys His His Cys His Arg Gly Tyr (RHHCWKRKFHEKHHCHRGY; disulfide 4-15 (inferred)) [Db3-67],0.67-1.34,
"Arg His His Cys Tyr Lys Arg Lys Cys His Glu Lys His His Cys His Arg Cys Tyr (RHHCYKRKCHEKHHCHRCY; also: cyclic analogue, ring not given here) [Db2-100]",0.63-1.25,
Arg His His Cys Tyr Lys Arg Lys His His Glu Lys His His Cys His Arg Gly Tyr (RHHCYKRKHHEKHHCHRGY; disulfide 4-15 (inferred)) [Db3-13],2.6-5.1,
Arg His His Cys Tyr Lys Arg Lys Phe His Glu Lys His His Cys His (RHHCYKRKFHEKHHCH; disulfide 4-15 (inferred)) [Db3-25],>5.2,
"Arg His His Cys Tyr Lys Arg Lys Phe His Glu Lys His His Cys His Arg (RHHCYKRKFHEKHHCHR; also: cyclic analogue, ring not given here) [Db3-15]",2.6-5.2,activity after additional deletions at the C-terminal (S. cerevisiae): small loss of activity
"Arg His His Cys Tyr Lys Arg Lys Phe His Glu Lys His His Cys His Arg Gly (RHHCYKRKFHEKHHCHRG; also: cyclic analogue, ring not given here) [Db3-19]",1.3-2.6,activity after additional deletions at the C-terminal (S. cerevisiae): small loss of activity
"Arg His His Cys Tyr Lys Arg Lys Phe His Glu Lys His His Cys His Arg Gly Tyr [Db3-35] (RHHCYKRKFHEKHHCHRGY; also: cyclic analogue, ring not given here)",1.3-2.5,
"Arg His His Cys Tyr Lys Arg Lys Phe His Glu Lys His His Cys His Arg Gly Tyr [Db3-53] (RHHCYKRKFHEKHHCHRGY; also: cyclic analogue, ring not given here)",>5,
Arg His His Gly Cys Lys Arg Lys Phe His Glu Lys His His Cys His Arg Gly Tyr (RHHGCKRKFHEKHHCHRGY; disulfide 5-15 (inferred)) [Db2-178],2.5-5,
Arg His His Gly Cys Lys Arg Lys Phe His Glu Lys His His Ser Cys Arg Gly Tyr (RHHGCKRKFHEKHHSCRGY; disulfide 5-16 (inferred)) [Db3-11],2.5-5,
Arg His His Gly Tyr Cys Arg Lys Phe His Glu Lys His His Cys His Arg Gly Tyr (RHHGYCRKFHEKHHCHRGY; disulfide 6-15 (inferred)) [Db2-179],2.5-5,
Arg His His Gly Tyr Lys Cys Lys Phe His Glu Lys His His Cys His Arg Gly Tyr (RHHGYKCKFHEKHHCHRGY; disulfide 7-15 (inferred)) [Db2-180],1.25-2.5,
RHHCYRKFHEKHHC (cysteine pairing not given here) [Db3-30],>5.2,
RHHKYRKFHEKHHEHRGY [Db3-41],,MIC range (S. cerevisiae; fungistatic activity): 0.55 to 1.1 µM
histatin-5 [Peptide H-5],,minimum inhibitory concentration (MIC) (C. albicans): 10 µg/mL
